Experimental data published in EP0908457B1, “3-(1,2-benzisothiazol- and isoxazol-5-Y1)-2,4(1H,3H)-pyrimidinedione or thione and 3-(1,2-benzisothiazol- and isoxazol-5-y1)-4(3H)-pyrimidinone or thione herbicidal agents” (BASF AKTIENGESELLSCHAFT, priority 1997, dated 1999).

What was measured:
[1] = system: Monochoria vaginalis, Presl.; test: Preemergence weed control under flooded paddy conditions, MOOVA (Monochoria); type: in vivo; details: flooded paddy, rated three to four weeks after treatment; for MOOVA herbicidal effect rating: preemergence; for herbicidal effect rating, MOOVA: preemergence weeds; for herbicidal effect rating, MOOVA: meaning of each grade not given here
[2] = system: Cyperus iria; test: Preemergence weed control under flooded paddy conditions, CYPIR (Rice Flatsedge); type: in vivo; details: flooded paddy, rated three to four weeks after treatment; for CYPIR herbicidal effect rating: preemergence; for herbicidal effect rating, CYPIR: preemergence weeds; for herbicidal effect rating, CYPIR: meaning of each grade not given here
[3] = system: Sagittaria pygmaea, L.; test: Preemergence weed control under flooded paddy conditions, SAGPY (Arrowhead (Pygmaea)); type: in vivo; details: flooded paddy, rated three to four weeks after treatment; for SAGPY herbicidal effect rating: preemergence; for herbicidal effect rating, SAGPY: preemergence weeds; for herbicidal effect rating, SAGPY: meaning of each grade not given here
[4] = system: Oryza sativa, (L.) Tebonnet; test: Rice tolerance to post-transplant applications under flooded paddy conditions (Example 187), ORYSAT (Rice, Tebonnet); details: rated three to four weeks after treatment; for herbicidal effect rating, ORYSAT: meaning of each grade not given here
[5] = system: Echinochloa oryzoides (Ard.) Fritsch.; test: Postemergence weed control under flooded paddy conditions, ECHORC (Watergrass (Calif.)); type: in vivo; details: rated three to four weeks after treatment
[6] = system: Cyperus serotinus, Rottb.; test: Preemergence weed control under flooded paddy conditions, CYPSE (Flatsedge); type: in vivo; details: rated three to four weeks after treatment; for CYPSE herbicidal effect rating: preemergence; for herbicidal effect rating, CYPSE: preemergence weeds; for herbicidal effect rating, CYPSE: meaning of each grade not given here
[7] = system: Sagittaria pygmaea, L.; test: Postemergence weed control under flooded paddy conditions, SAGPY (Arrowhead (Pygmaea)); type: in vivo; details: rated three to four weeks after treatment
[8] = system: Cyperus iria; test: Postemergence weed control under flooded paddy conditions, CYPIR (Rice Flatsedge); type: in vivo; details: rated three to four weeks after treatment
[9] = system: Echinochloa oryzoides (Ard.) Fritsch.; test: Preemergence weed control under flooded paddy conditions, ECHORC (Watergrass (Calif.)); type: in vivo; details: flooded paddy, rated three to four weeks after treatment; for ECHORC herbicidal effect rating: preemergence; for herbicidal effect rating, ECHORC: preemergence weeds; for herbicidal effect rating, ECHORC: meaning of each grade not given here
[10] = system: Oryza sativa, (L.) Tebonnet; test: Rice tolerance to post-transplant applications under flooded paddy conditions (Example 188), ORYSAT (Rice, Tebonnet); details: rated three to four weeks after treatment
[11] = system: Monochoria vaginalis, Presl.; test: Postemergence weed control under flooded paddy conditions, MOOVA (Monochoria); type: in vivo; details: rated three to four weeks after treatment
[12] = system: Cyperus serotinus, Rottb.; test: Postemergence weed control under flooded paddy conditions, CYPSE (Flatsedge); type: in vivo; details: rated three to four weeks after treatment

For `COc1c(-c2nsc3ccc(-n4c(=O)cc(C(F)(F)F)n(C)c4=O)cc23)ccc(C)c1C` [Example 267, 2,4(1H,3H)-Pyrimidinedione, 3-[3-(2-methoxy-3,4-xylyl)-1,2-benzisothiazol-5-yl]-1-methyl-6-(trifluoromethyl)-], the “MOOVA herbicidal effect rating” value ([1]; Rate 0.0320 kg/ha) was 7.5, the “MOOVA herbicidal effect rating” value ([1]; Rate 0.0620 kg/ha) was 9.0 and the “MOOVA herbicidal effect rating” value ([1]; Rate 0.1250 kg/ha) was 9.0. For the same compound, the “MOOVA herbicidal effect rating” value ([1]; Rate 0.2500 kg/ha) was 9.0, the “CYPIR herbicidal effect rating” value ([2]; Rate 0.0320 kg/ha) was 8.0 and the “CYPIR herbicidal effect rating” value ([2]; Rate 0.0620 kg/ha) was 8.0. The “CYPIR herbicidal effect rating” value ([2]; Rate 0.1250 kg/ha) was 9.0, the “CYPIR herbicidal effect rating” value ([2]; Rate 0.2500 kg/ha) was 9.0 and the “SAGPY herbicidal effect rating” value ([3]; Rate 0.0320 kg/ha) was 0.0. For the same compound, the “SAGPY herbicidal effect rating” value ([3]; Rate 0.0620 kg/ha) was 1.0, the “SAGPY herbicidal effect rating” value ([3]; Rate 0.1250 kg/ha) was 3.0 and the “SAGPY herbicidal effect rating” value ([3]; Rate 0.2500 kg/ha) was 5.0. For the same compound, the “ORYSAT herbicidal effect rating” value ([4]; Rate 0.0320 kg/ha) was 2.0, the “ORYSAT herbicidal effect rating” value ([4]; Rate 0.0620 kg/ha) was 3.0 and the “ORYSAT herbicidal effect rating” value ([4]; Rate 0.1250 kg/ha) was 4.5. The “ORYSAT herbicidal effect rating” value ([4]; Rate 0.2500 kg/ha) was 6.0, the “herbicidal effect rating, ECHORC” value ([5]; Rate 0.0320 kg/ha) was 4.0 and the “herbicidal effect rating, ECHORC” value ([5]; Rate 0.0620 kg/ha) was 8.0. For the same compound, the “herbicidal effect rating, ECHORC” value ([5]; Rate 0.1250 kg/ha) was 9.0, the “herbicidal effect rating, ECHORC” value ([5]; Rate 0.2500 kg/ha) was 9.0 and the “CYPSE herbicidal effect rating” value ([6]; Rate 0.0320 kg/ha) was 0.0. The “CYPSE herbicidal effect rating” value ([6]; Rate 0.0620 kg/ha) was 0.0, the “CYPSE herbicidal effect rating” value ([6]; Rate 0.1250 kg/ha) was 5.5 and the “CYPSE herbicidal effect rating” value ([6]; Rate 0.2500 kg/ha) was 9.0. The “herbicidal effect rating, SAGPY” value ([7]; Rate 0.0320 kg/ha) was 0.0, the “herbicidal effect rating, SAGPY” value ([7]; Rate 0.0620 kg/ha) was 0.0 and the “herbicidal effect rating, SAGPY” value ([7]; Rate 0.1250 kg/ha) was 0.0. For the same compound, the “herbicidal effect rating, SAGPY” value ([7]; Rate 0.2500 kg/ha) was 0.0, the “herbicidal effect rating, CYPIR” value ([8]; Rate 0.0320 kg/ha) was 9.0 and the “herbicidal effect rating, CYPIR” value ([8]; Rate 0.0620 kg/ha) was 9.0. The “herbicidal effect rating, CYPIR” value ([8]; Rate 0.1250 kg/ha) was 9.0, the “herbicidal effect rating, CYPIR” value ([8]; Rate 0.2500 kg/ha) was 9.0 and the “ECHORC herbicidal effect rating” value ([9]; Rate 0.0320 kg/ha) was 9.0. The “ECHORC herbicidal effect rating” value ([9]; Rate 0.0620 kg/ha) was 9.0, the “ECHORC herbicidal effect rating” value ([9]; Rate 0.1250 kg/ha) was 9.0 and the “ECHORC herbicidal effect rating” value ([9]; Rate 0.2500 kg/ha) was 9.0. For the same compound, the “herbicidal effect rating, ORYSAT (rice tolerance)” value (“herbicidal effect rating, ORYSAT” below) ([10]; Rate 0.0320 kg/ha) was 2.0, the “herbicidal effect rating, ORYSAT” value ([10]; Rate 0.0620 kg/ha) was 5.0 and the “herbicidal effect rating, ORYSAT” value ([10]; Rate 0.1250 kg/ha) was 6.0. The “herbicidal effect rating, ORYSAT” value ([10]; Rate 0.2500 kg/ha) was 7.0, the “herbicidal effect rating, MOOVA” value ([11]; Rate 0.0320 kg/ha) was 9.0 and the “herbicidal effect rating, MOOVA” value ([11]; Rate 0.0620 kg/ha) was 9.0. The “herbicidal effect rating, MOOVA” value ([11]; Rate 0.1250 kg/ha) was 9.0, the “herbicidal effect rating, MOOVA” value ([11]; Rate 0.2500 kg/ha) was 9.0 and the “herbicidal effect rating, CYPSE” value ([12]; Rate 0.0320 kg/ha) was 0.0. The “herbicidal effect rating, CYPSE” value ([12]; Rate 0.0620 kg/ha) was 0.0, the “herbicidal effect rating, CYPSE” value ([12]; Rate 0.1250 kg/ha) was 0.0 and the “herbicidal effect rating, CYPSE” value ([12]; Rate 0.2500 kg/ha) was 0.0.
With `CCOc1cccc(-c2nsc3ccc(-n4c(=O)cc(C(F)(F)F)n(C)c4=O)cc23)c1` [Example 327, 2,4(1H,3H)-Pyrimidinedione, 3-[3-(m-ethoxyphenyl)-1,2-benzisothiazol-5-yl]-1-methyl-6-(trifluoromethyl)-] the “herbicidal effect rating, MOOVA” value ([1]; Rate 0.0320 kg/ha) was 9.0, the “herbicidal effect rating, MOOVA” value ([1]; Rate 0.0620 kg/ha) was 9.0 and the “herbicidal effect rating, MOOVA” value ([1]; Rate 0.1250 kg/ha) was 9.0. For the same compound, the “herbicidal effect rating, MOOVA” value ([1]; Rate 0.2500 kg/ha) was 9.0, the “herbicidal effect rating, CYPIR” value ([2]; Rate 0.0320 kg/ha) was 9.0 and the “herbicidal effect rating, CYPIR” value ([2]; Rate 0.0620 kg/ha) was 9.0. The “herbicidal effect rating, CYPIR” value ([2]; Rate 0.1250 kg/ha) was 9.0, the “herbicidal effect rating, CYPIR” value ([2]; Rate 0.2500 kg/ha) was 9.0 and the “herbicidal effect rating, SAGPY” value ([3]; Rate 0.0320 kg/ha) was 3.0. For the same compound, the “herbicidal effect rating, SAGPY” value ([3]; Rate 0.0620 kg/ha) was 5.5, the “herbicidal effect rating, SAGPY” value ([3]; Rate 0.1250 kg/ha) was 5.5 and the “herbicidal effect rating, SAGPY” value ([3]; Rate 0.2500 kg/ha) was 7.5. For the same compound, the “herbicidal effect rating ORYSAT” value ([4]; Rate 0.0320 kg/ha) was 3.0, the “herbicidal effect rating ORYSAT” value ([4]; Rate 0.0620 kg/ha) was 2.5 and the “herbicidal effect rating ORYSAT” value ([4]; Rate 0.1250 kg/ha) was 3.5. For the same compound, the “herbicidal effect rating ORYSAT” value ([4]; Rate 0.2500 kg/ha) was 4.0, the “herbicidal effect rating, ECHORC” value ([5]; Rate 0.0320 kg/ha) was 9.0 and the “herbicidal effect rating, ECHORC” value ([5]; Rate 0.0620 kg/ha) was 7.0. For the same compound, the “herbicidal effect rating, ECHORC” value ([5]; Rate 0.1250 kg/ha) was 9.0, the “herbicidal effect rating, ECHORC” value ([5]; Rate 0.2500 kg/ha) was 9.0 and the “herbicidal effect rating, CYPSE” value ([6]; Rate 0.0320 kg/ha) was 1.0. The “herbicidal effect rating, CYPSE” value ([6]; Rate 0.0620 kg/ha) was 5.5, the “herbicidal effect rating, CYPSE” value ([6]; Rate 0.1250 kg/ha) was 5.5 and the “herbicidal effect rating, CYPSE” value ([6]; Rate 0.2500 kg/ha) was 9.0. For the same compound, the “herbicidal effect rating, SAGPY” value ([7]; Rate 0.0320 kg/ha) was 0.0, the “herbicidal effect rating, SAGPY” value ([7]; Rate 0.0620 kg/ha) was 0.0 and the “herbicidal effect rating, SAGPY” value ([7]; Rate 0.1250 kg/ha) was 4.0. The “herbicidal effect rating, SAGPY” value ([7]; Rate 0.2500 kg/ha) was 4.0, the “herbicidal effect rating, CYPIR” value ([8]; Rate 0.0320 kg/ha) was 9.0 and the “herbicidal effect rating, CYPIR” value ([8]; Rate 0.0620 kg/ha) was 9.0. For the same compound, the “herbicidal effect rating, CYPIR” value ([8]; Rate 0.1250 kg/ha) was 9.0, the “herbicidal effect rating, CYPIR” value ([8]; Rate 0.2500 kg/ha) was 9.0 and the “herbicidal effect rating, ECHORC” value ([9]; Rate 0.0320 kg/ha) was 9.0. The “herbicidal effect rating, ECHORC” value ([9]; Rate 0.0620 kg/ha) was 9.0, the “herbicidal effect rating, ECHORC” value ([9]; Rate 0.1250 kg/ha) was 9.0 and the “herbicidal effect rating, ECHORC” value ([9]; Rate 0.2500 kg/ha) was 9.0. For the same compound, the “herbicidal effect rating, ORYSAT” value ([10]; Rate 0.0320 kg/ha) was 2.0, the “herbicidal effect rating, ORYSAT” value ([10]; Rate 0.0620 kg/ha) was 3.0 and the “herbicidal effect rating, ORYSAT” value ([10]; Rate 0.1250 kg/ha) was 5.0. For the same compound, the “herbicidal effect rating, ORYSAT” value ([10]; Rate 0.2500 kg/ha) was 4.0, the “herbicidal effect rating, MOOVA” value ([11]; Rate 0.0320 kg/ha) was 9.0 and the “herbicidal effect rating, MOOVA” value ([11]; Rate 0.0620 kg/ha) was 9.0. The “herbicidal effect rating, MOOVA” value ([11]; Rate 0.1250 kg/ha) was 9.0, the “herbicidal effect rating, MOOVA” value ([11]; Rate 0.2500 kg/ha) was 9.0 and the “herbicidal effect rating, CYPSE” value ([12]; Rate 0.0320 kg/ha) was 0.0. For the same compound, the “herbicidal effect rating, CYPSE” value ([12]; Rate 0.0620 kg/ha) was 0.0, the “herbicidal effect rating, CYPSE” value ([12]; Rate 0.1250 kg/ha) was 0.0 and the “herbicidal effect rating, CYPSE” value ([12]; Rate 0.2500 kg/ha) was 2.0.
